# Where a name gives a salt, the structure may show the parent alone.
# Assay: Particle size distribution by laser diffraction (Sympatec Helos)
# Type: physicochemical
# Conditions: laser diffraction at 1 bar dispersive pressure
# Text: As used herein, “particle size distribution” means the cumulative volume size distribution of equivalent spherical diameters as determined by laser diffraction at 1 bar dispersive pressure in a Sympatec Helos equipment. “Median particle size”, correspondingly, means the median of said particle size distribution. When the term “Escitalopram” is used it covers Escitalopram as well as a pharmaceutically acceptable salt and/or a pharmaceutically acceptable solvate thereof.
smiles,measurement,value
"CN(C)CCC[C@@]1(c2ccc(F)cc2)OCc2cc(C#N)ccc21 [Escitalopram oxalate, (S)-1-[3-(dimethylamino)propyl]-1-(4-fluorophenyl)-1,3-dihydro-5-isobenzofurancarbonitrile]",median particle size,about 6.65 μm
same,ratio between the median particle size and the particle size at the 95% quantile,about 0.61

# Source: patent publication US20120288712A1, “ESCITALOPRAM AND SOLID PHARMACEUTICAL COMPOSITION COMPRISING THE SAME” (ratiopharm GmbH, priority 2006, published 2012)
